Blank lines part the entries; values can stand above or below the compound they belong to.
How the values were obtained:
[1] = test system: DU-145; experiment: Antiproliferative activity against human DU145 cells measured after 72 hrs by EZ-Cytox assay; type: functional, cell-based; conditions: DU-145, 72 h
[2] = test system: HeLa; experiment: Antiproliferative activity against human HeLa cells measured after 72 hrs by EZ-Cytox assay; type: functional, cell-based
[3] = test system: T47D; experiment: Antiproliferative activity against human T47D cells measured after 72 hrs by EZ-Cytox assay; type: functional, cell-based
[4] = biological target: DNA topoisomerase 2-alpha (Homo sapiens) (UniProt P11388); experiment: Inhibition of recombinant human topoisomerase 2alpha-mediated relaxation of supercoiled pBR322 DNA at 20 uM measured after 30 mins by ethidium bromide staining based agarose gel electrophoresis relative to control
[5] = test system: HCT-15; experiment: Antiproliferative activity against human HCT15 cells measured after 72 hrs by EZ-Cytox assay; type: functional, cell-based; conditions: HCT-15, 72 h
[6] = biological target: T1, DNA topoisomerase 1 (Homo sapiens) (UniProt P11387); experiment: Inhibition of recombinant human topoisomerase 1-mediated relaxation of supercoiled pBR322 DNA at 100 uM measured after 30 mins by ethidium bromide staining based agarose gel electrophoresis relative to control
T1 sequence (whole entry): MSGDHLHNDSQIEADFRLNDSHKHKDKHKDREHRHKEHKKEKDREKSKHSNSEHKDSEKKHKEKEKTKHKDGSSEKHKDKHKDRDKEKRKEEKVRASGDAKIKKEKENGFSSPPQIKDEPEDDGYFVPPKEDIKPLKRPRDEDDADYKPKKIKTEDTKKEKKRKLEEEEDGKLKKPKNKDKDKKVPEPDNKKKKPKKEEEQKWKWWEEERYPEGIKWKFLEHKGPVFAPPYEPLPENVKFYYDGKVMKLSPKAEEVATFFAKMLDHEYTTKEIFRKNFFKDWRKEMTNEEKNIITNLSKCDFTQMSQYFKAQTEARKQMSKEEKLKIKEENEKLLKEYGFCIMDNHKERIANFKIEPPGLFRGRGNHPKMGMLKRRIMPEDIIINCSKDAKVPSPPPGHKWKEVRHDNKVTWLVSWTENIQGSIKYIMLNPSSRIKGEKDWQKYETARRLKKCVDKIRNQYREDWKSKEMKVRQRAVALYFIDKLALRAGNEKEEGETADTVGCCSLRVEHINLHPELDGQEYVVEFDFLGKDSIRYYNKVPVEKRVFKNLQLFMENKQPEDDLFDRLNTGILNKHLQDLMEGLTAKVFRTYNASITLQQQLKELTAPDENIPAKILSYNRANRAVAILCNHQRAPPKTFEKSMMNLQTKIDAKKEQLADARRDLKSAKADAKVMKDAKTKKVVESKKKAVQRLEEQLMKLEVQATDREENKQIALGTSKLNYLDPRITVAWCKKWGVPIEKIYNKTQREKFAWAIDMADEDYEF

[7] = biological target: DNA topoisomerase 2-alpha (Homo sapiens) (UniProt P11388); experiment: Inhibition of recombinant human topoisomerase 2alpha-mediated relaxation of supercoiled pBR322 DNA at 100 uM measured after 30 mins by ethidium bromide staining based agarose gel electrophoresis relative to control

DNA topoisomerase 2-alpha (Homo sapiens), sequence (P11388 whole entry): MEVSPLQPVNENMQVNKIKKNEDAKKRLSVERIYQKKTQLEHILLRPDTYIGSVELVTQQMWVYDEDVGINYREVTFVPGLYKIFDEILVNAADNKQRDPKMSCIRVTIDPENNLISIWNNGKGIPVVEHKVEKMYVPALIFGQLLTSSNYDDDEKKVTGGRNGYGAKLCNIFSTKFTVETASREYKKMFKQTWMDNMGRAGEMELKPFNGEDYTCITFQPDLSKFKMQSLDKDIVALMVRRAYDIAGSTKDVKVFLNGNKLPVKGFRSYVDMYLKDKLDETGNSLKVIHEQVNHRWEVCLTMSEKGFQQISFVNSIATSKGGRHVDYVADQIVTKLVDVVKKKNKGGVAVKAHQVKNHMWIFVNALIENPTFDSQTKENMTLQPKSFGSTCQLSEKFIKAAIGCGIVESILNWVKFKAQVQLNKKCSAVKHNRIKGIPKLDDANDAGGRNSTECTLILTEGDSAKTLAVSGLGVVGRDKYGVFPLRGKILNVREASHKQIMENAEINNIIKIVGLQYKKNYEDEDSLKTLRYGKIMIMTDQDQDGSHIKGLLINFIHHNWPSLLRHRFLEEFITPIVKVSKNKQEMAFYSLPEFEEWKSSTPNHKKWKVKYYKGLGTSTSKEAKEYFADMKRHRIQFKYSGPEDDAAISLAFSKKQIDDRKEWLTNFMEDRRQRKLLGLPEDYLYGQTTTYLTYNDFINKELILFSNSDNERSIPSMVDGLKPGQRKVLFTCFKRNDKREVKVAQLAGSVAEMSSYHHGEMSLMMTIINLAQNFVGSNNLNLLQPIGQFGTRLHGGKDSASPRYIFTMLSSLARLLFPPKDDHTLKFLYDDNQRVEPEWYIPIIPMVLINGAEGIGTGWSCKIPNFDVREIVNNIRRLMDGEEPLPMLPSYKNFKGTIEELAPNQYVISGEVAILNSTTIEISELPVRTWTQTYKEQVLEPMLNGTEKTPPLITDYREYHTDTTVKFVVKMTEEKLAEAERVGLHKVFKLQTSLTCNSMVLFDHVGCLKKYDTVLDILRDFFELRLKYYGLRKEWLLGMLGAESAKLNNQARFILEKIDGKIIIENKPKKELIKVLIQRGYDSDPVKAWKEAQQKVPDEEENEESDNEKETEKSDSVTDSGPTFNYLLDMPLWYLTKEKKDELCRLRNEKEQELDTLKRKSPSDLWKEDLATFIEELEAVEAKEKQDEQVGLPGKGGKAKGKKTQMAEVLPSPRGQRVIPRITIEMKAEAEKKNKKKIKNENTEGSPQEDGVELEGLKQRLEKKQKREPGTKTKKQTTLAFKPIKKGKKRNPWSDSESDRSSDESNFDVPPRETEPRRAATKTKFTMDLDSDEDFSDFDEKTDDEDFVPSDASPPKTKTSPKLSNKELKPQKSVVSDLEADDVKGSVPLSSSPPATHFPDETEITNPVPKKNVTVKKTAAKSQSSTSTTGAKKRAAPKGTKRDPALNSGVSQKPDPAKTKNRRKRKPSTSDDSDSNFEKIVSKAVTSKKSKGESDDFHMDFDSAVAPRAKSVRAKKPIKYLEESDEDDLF

Compound: Oc1ccc2c(c1)-c1nc(-c3ccccc3)cc(-c3ccccc3)c1C2
IC50 [1]: 3.49 µM | IC50 [2]: 4.38 µM | IC50 [3]: 0.19 µM | inhibition [4]: 5.5% | IC50 [5]: 3.13 µM | inhibition [6]: 2.6% | inhibition [7]: 79.9%

Compound: Oc1ccccc1-c1cc(-c2cccc(F)c2)nc2c1Cc1c(O)cccc1-2
IC50 [1]: 3.94 µM | IC50 [2]: 3.92 µM | IC50 [3]: 1.25 µM | inhibition [4]: 4.8% | IC50 [5]: 2.35 µM | inhibition [6]: 0% | inhibition [7]: 80.7%

Compound: Oc1ccccc1-c1cc(-c2ccc(C(F)(F)F)cc2)nc2c1Cc1cccc(O)c1-2
IC50 [1]: 4.5 µM | IC50 [2]: 5.24 µM | IC50 [3]: 4.2 µM | inhibition [4]: 0.9% | IC50 [5]: 3.49 µM | inhibition [6]: 13.6% | inhibition [7]: 92.2%

Compound: Oc1ccc2c(c1)-c1nc(-c3cccc(C(F)(F)F)c3)cc(-c3ccccc3O)c1C2
IC50 [1]: 1.63 µM | IC50 [2]: 5.25 µM | IC50 [3]: 0.51 µM | inhibition [4]: 2.8% | IC50 [5]: 2.95 µM | inhibition [6]: 0% | inhibition [7]: 98.9%

Compound: Oc1ccc2c(c1)Cc1c(-c3ccccc3)cc(-c3ccccc3)nc1-2
IC50 [1]: 3.82 µM | IC50 [2]: 4.94 µM | IC50 [3]: 0.7 µM | inhibition [4]: 2.1% | IC50 [5]: 3.37 µM | inhibition [6]: 2.1% | inhibition [7]: 54.2%

Compound: Oc1ccc2c(c1)-c1nc(-c3ccccc3C(F)(F)F)cc(-c3ccccc3O)c1C2
IC50 [1]: 2.86 µM | IC50 [2]: 2.96 µM | IC50 [3]: 1.41 µM | inhibition [4]: 3.4% | IC50 [5]: 4.04 µM | inhibition [6]: 0.4% | inhibition [7]: 86.1%

Compound: Oc1ccc2c(c1)-c1nc(-c3cccc(Cl)c3)cc(-c3ccccc3O)c1C2
IC50 [1]: 0.32 µM | IC50 [2]: 2.77 µM | IC50 [3]: 1.16 µM | inhibition [4]: 10.8% | IC50 [5]: 1.76 µM | inhibition [6]: 22.9% | inhibition [7]: 87.9%

Compound: Oc1cccc(-c2cc(-c3cccc(Cl)c3)nc3c2Cc2cc(O)ccc2-3)c1
IC50 [1]: 3.21 µM | IC50 [2]: 5.99 µM | IC50 [3]: 0.86 µM | inhibition [4]: 37.8% | IC50 [5]: 1.62 µM | inhibition [6]: 0% | inhibition [7]: 80.2%

Compound: Oc1cccc(-c2cc(-c3ccccc3)c3c(n2)-c2c(O)cccc2C3)c1
IC50 [1]: 0.43 µM | IC50 [2]: > 50 µM | IC50 [3]: 3.68 µM | IC50 [5]: > 50 µM | inhibition [6]: 0% | inhibition [7]: 0%

Compound: Oc1ccc(-c2cc(-c3cccc(C(F)(F)F)c3)nc3c2Cc2cccc(O)c2-3)cc1
IC50 [1]: 44.1 µM | IC50 [2]: 16.8 µM | IC50 [3]: 9.57 µM | IC50 [5]: 4.77 µM | inhibition [6]: 2.3% | inhibition [7]: 12.9%

More lines, main results first:

inhibition [4]: 0% | inhibition [6]: 6.7% | inhibition [7]: 59.9%
Compound: Oc1ccc(-c2cc(-c3ccc(Cl)cc3)nc3c2Cc2c(O)cccc2-3)cc1
IC50 [1]: 1.88 µM | IC50 [2]: 4.08 µM | IC50 [3]: 1.15 µM | IC50 [5]: 3 µM

inhibition [4]: 7.5% | inhibition [6]: 1.3% | inhibition [7]: 97%
Compound: Oc1ccc(-c2cc(-c3ccc(Cl)cc3)c3c(n2)-c2cccc(O)c2C3)cc1
IC50 [1]: 1.81 µM | IC50 [2]: 18.3 µM | IC50 [3]: 12.8 µM | IC50 [5]: 9.1 µM

inhibition [4]: 6.2% | inhibition [6]: 2.1% | inhibition [7]: 74.3%
Compound: Oc1cccc(-c2cc(-c3ccc(Cl)cc3)c3c(n2)-c2ccc(O)cc2C3)c1
IC50 [1]: > 50 µM | IC50 [2]: > 50 µM | IC50 [3]: > 50 µM | IC50 [5]: > 50 µM

inhibition [4]: 36.9% | inhibition [6]: 1.2% | inhibition [7]: 72.8%
Compound: Oc1ccc(-c2cc(-c3cccc(Cl)c3)nc3c2Cc2c(O)cccc2-3)cc1
IC50 [1]: 0.22 µM | IC50 [2]: 3.56 µM | IC50 [3]: 0.62 µM | IC50 [5]: 1.84 µM

inhibition [4]: 0.6% | inhibition [6]: 7.1% | inhibition [7]: 30.1%
Compound: Oc1ccc(-c2cc(-c3ccccc3C(F)(F)F)nc3c2Cc2c(O)cccc2-3)cc1
IC50 [1]: 5.34 µM | IC50 [2]: > 50 µM | IC50 [3]: 2.66 µM | IC50 [5]: 3.82 µM

inhibition [6]: 0% | inhibition [7]: 23.3%
Compound: Oc1ccc2c(c1)-c1nc(-c3ccc(F)cc3)cc(-c3ccccc3O)c1C2
IC50 [1]: 3.49 µM | IC50 [2]: 4.38 µM | IC50 [3]: 0.19 µM | IC50 [5]: 3.13 µM

inhibition [6]: 10.2% | inhibition [7]: 4%
Compound: Oc1ccc(-c2cc(-c3ccccc3)nc3c2Cc2cccc(O)c2-3)cc1
IC50 [1]: 4.13 µM | IC50 [2]: > 50 µM | IC50 [3]: > 50 µM | IC50 [5]: > 50 µM

— ChEMBL document CHEMBL4373715, “Discovery and Biological Evaluations of Halogenated 2,4-Diphenyl Indeno[1,2-b]pyridinol Derivatives as Potent Topoisomerase IIα-Targeted Chemotherapeutic Agents for Breast Cancer” (J Med Chem, 2019)
